Here are results for 30 compounds from patent US4243672A, “5-Substituted 2-pyrroleglyoxylic acids, 5-substituted 2-pyrrolylglycines and derivatives thereof” (Pfizer Inc., priority 1978, dated 1981).

SMILES strings stand for the structures. Structures can show the parent of a compound that is named as a salt.

Experiment [1] relates to pyruvate dehydrogenase enzyme (PDH). Put plainly: Proportion of active pyruvate dehydrogenase (PDHa/PDHt) in hearts of fat-fed rats after dosing. It counts as in vivo, rat. The note with it: heart, after 1.5 hours. The procedure: Rats fed on a high fat diet as in the previous test, are treated either with placebo or with the compound of formula (I) or (II) by subcutaneous or intravenous injection or by oral administration. After 1.5 hours the rat hearts are removed and homogenized under conditions which minimize changes in the proportion of the pyruvate dehydrogenase enzyme (PDH) which is present in the active form, as described by Whitehouse and Randle [Biochem. J., 134, 651 (1973)]. The total amount of enzyme present (PDHt) and the amount which is present in the active form (PDHa) are assessed by a method similar to that described by Taylor et al. [J. Biol. Chem., 248, 73 (1973)]. The fat-feeding process is found to depress the ratio PDHa/PDHt from a normal value of about 0.7 to a value in the range from 0.05 to 0.2. Treatment of fat-fed rats with the compounds of formula (I) or (II) either parenterally or orally, increases this ratio in a dose dependent manner.
The increase in the PDHa/PDHt ratio affected by various of the compounds for the Examples at the dose level indicated is shown in the following Table: The compounds were administered by subcutaneous injection except where indicated by (0) where the compounds were administered orally.

The subject of experiment [2] is diaphragm tissue from fat-fed rats. Put plainly: Pyruvate oxidation by diaphragm tissue from fat-fed rats (14C-pyruvate into CO2) in vitro. It counts as cell-based. The note with it: Rattus norvegicus, stimulation of pyruvate oxidation, concentration 0.5 mmolar. The procedure: Diaphragm tissue is obtained from rats fed on a high fat diet similar to 'Diet B' described by Zaragoza and Felber [Horm, Metab. Res., 2, 323 (1970)]. Pyruvate oxidation by such tissue is assessed by measurement of the rate of incorporation of carbon-14 from carbon-14-labelled pyruvate into carbon dioxide in vitro, as described by Bringolf [Eur. J. Biochem., 26, 360 (1972)]. The rate of pyruvate oxidation is depressed by 50-75% compared with that by diaphragm tissue from rats fed on a normal diet. When the compounds of the invention are added to the medium, they are found to stimulate pyruvate oxidation by diaphragm tissue from fat-fed rats in a dose dependent manner.

For the next experiment, the system named is heart. Kind of experiment: Myocardial blood flow and metabolism in fasted, closed-chest, anaesthetized, electrically paced beagle dogs. In kind it is in vivo. As to conditions: 0.02 to 0.1 millimole/kg. intravenously. The procedure:
The ability of compounds of formula (I) or (II) to reduce oxygen demand and affect the relative utilization of carbohydrate and lipid metabolites in the heart has been assessed by measuring the effect of the compounds on myocardial blood flow and metabolism in fasted, closed-chest, anaesthetized beagle dogs, with cardiac catherization to enable simultaneous sampling of coronary sinus and arterial blood to be carried out. Coronary sinus blood flow is measured by the hydrogen gas clearance technique described by Aukland et al. [Circulation Res., 14, 164 (1964)]. The heart is paced electrically at 155 beats/minute and recordings of hemodynamic parameters (blood pressure, left ventricular pressure and the first derivative of the latter) are made continuously. Control measurement of coronary blood flow are made and samples of blood taken at 40 minute intervals, both in an untreated animal and in the same animal dose with an infusion of isoprenaline (60 ng./kg./min.), which both stimulates cardiac contraction and increases plasma free fatty acid levels. The compound of formula (I) or (II) is then administered intravenously and measurements are made and samples taken again, 40 minutes and 90 minutes later. The blood samples from the artery and coronary sinus are analyzed for oxyhemoglobin, pyruvate and free fatty acid (FFA) content, differences between those of the arterial and coronary sinus blood, when multiplied by coronary blood flow, being a measure of oxygen consumption, pyruvate uptake and FFA uptake by the myocardium respectively.

[3] abbreviates: 0.6 mMol/kg., administered orally (0).
The mark [4] stands for this setting: 0.6 mMol/kg., subcutaneous injection.
Where [5] appears, read: 0.3 mMol/kg., administered orally (0).
Where [6] appears, read: 1.2 mMol/kg., subcutaneous injection.
The mark [7] stands for this setting: 0.3 mMol/kg., subcutaneous injection.

For `NC(C(=O)O)c1ccc(CC2CC2)[nH]1` (racemic) [Example 59, DL-2-(5-Cyclopropylmethyl-2-pyrrolyl)glycine], the PDHa/PDHt ratio in experiment [1] (setting [3]) was found to be 0.21. Moreover, in experiment [2], the activation at 500 µM worked out at 29%. Take `CCc1ccc(C(N)C(=O)O)[nH]1` (racemic) [Example 60, DL-2-(5-Ethyl-2-pyrrolyl)glycine]: the PDHa/PDHt ratio in experiment [1] (setting [4]) is on record as 0.16. Also, the activation at 500 µM in experiment [2] came out at 59%. For `CCCCCc1ccc(C(N)C(=O)O)[nH]1` (racemic) [Example 61, DL-2-(5-n-Pentyl-2-pyrrolyl)glycine], the PDHa/PDHt ratio in experiment [1] (setting [3]) was determined as 0.13. Moreover, the activation at 500 µM in experiment [2] turned out to be 84%.

As to `NC(=O)C(N)c1ccc(CC2CC2)[nH]1` (racemic) [Example 64, DL-2-(5-Cyclopropylmethyl-2-pyrrolyl)glycinamide], in experiment [1] (setting [4]), the PDHa/PDHt ratio worked out at 0.27. In the experiment with heart, the “effect on myocardial blood flow or any of the hemodynamic parameters measured” value is “no significant affect” and the myocardial glucose uptake entry was “increased”. For the same compound, in the experiment on heart (in the presence of isoprenaline), the “decrease of myocardial oxygen consumption” value was “about 20%”. The “increase of myocardial pyruvate uptake” value in the experiment on heart (presence and absence of isoprenaline, for at least 40 minutes after dosing) was “at least 2 fold”. Further, in experiment [2], the activation at 500 µM is 87%. On to `CCOC(=O)C(=O)c1ccc(C)[nH]1` [Example 1, 5-Methyl-2-pyrrolylglyoxylic Acid Ethyl Ester], for which the activation at 500 µM in experiment [2] was 32%.

Turning to `CCOC(=O)C(=O)c1ccc(C(C)(C)C)[nH]1` [Example 2], in experiment [2], the activation at 500 µM stood at 50%. Consider `CCCCc1ccc(C(=O)C(=O)OCC)[nH]1` [Example 6], for which the PDHa/PDHt ratio in experiment [1] (setting [5]) came out at 0.23.

For the compound `CCOC(=O)C(=O)c1ccc(CC(C)C)[nH]1` [Example 9], the activation at 500 µM in experiment [2] came to 65%.

For `CCOC(=O)C(=O)c1ccc(Cc2ccccc2)[nH]1` [Example 18], the activation at 500 µM in experiment [2] was determined as 19%. `CCc1ccc(C(=O)C(=O)O)[nH]1` [Example 20, 5-Ethyl-2-Pyrrolylglyoxylic Acid]: the PDHa/PDHt ratio in experiment [1] (setting [6]) turned out to be 0.85. This compound registered an activation at 500 µM in experiment [2] of 66%. For the compound `O=C(O)C(=O)c1ccc(CC2CC2)[nH]1` [Example 21, 5-Cyclopropylmethyl-2-pyrrolylglyoxylic Acid Sodium Salt], the PDHa/PDHt ratio in experiment [1] (setting [7]) was found to be 0.44; in experiment [1] (setting [4]), 0.71. Also, the activation at 500 µM in experiment [2] is 147%. As for `Cc1ccc(C(=O)C(=O)O)[nH]1` [Example 22], in experiment [1] (setting [6]), the PDHa/PDHt ratio was found to be 0.84. This compound registered an activation at 500 µM in experiment [2] of 51%. Regarding `CCCc1ccc(C(=O)C(=O)O)[nH]1` [Example 23], the PDHa/PDHt ratio in experiment [1] (setting [4]) is 0.66; in experiment [1] (setting [6]) it was 0.82. For the same compound, the activation at 500 µM in experiment [2] is 78%. Turning to `CCCCc1ccc(C(=O)C(=O)O)[nH]1` [Example 24, 2-(5-n-butyl-2-pyrrolyl)glyoxylic acid], the PDHa/PDHt ratio in experiment [1] (setting [7]) came to 0.42. Moreover, the activation at 500 µM in experiment [2] amounted to 140%. Turning to `CC(C)Cc1ccc(C(=O)C(=O)O)[nH]1` [Example 25], the PDHa/PDHt ratio was 0.45 in experiment [1] (setting [4]) and 1.00 in experiment [1] (setting [6]). Moreover, in experiment [2], the activation at 500 µM turned out to be 59%. Compound `CC(C)(C)c1ccc(C(=O)C(=O)O)[nH]1` [Example 26] gave an activation at 500 µM in experiment [2] of 31%. In the case of `CCCCCc1ccc(C(=O)C(=O)O)[nH]1` [Example 27, 2-(5-n-amyl-2-pyrrolyl)glyoxylic acid], the PDHa/PDHt ratio in experiment [1] (setting [4]) stood at 0.13. Further, the activation at 500 µM in experiment [2] turned out to be 157%. For `CC(C)(C)Cc1ccc(C(=O)C(=O)O)[nH]1` [Example 28], in experiment [2], the activation at 500 µM is 88%. With `CCCCCCc1ccc(C(=O)C(=O)O)[nH]1` [Example 29, 2-(5-n-hexyl-2-pyrrolyl)glyoxylic acid], the PDHa/PDHt ratio in experiment [1] (setting [5]) is 0.40. Moreover, the activation at 500 µM in experiment [2] is 78%. As for `CC(C)(C)CCc1ccc(C(=O)C(=O)O)[nH]1` [Example 30], the activation at 500 µM in experiment [2] was determined as 44%. Turning to `O=C(O)C(=O)c1ccc(CCC2CCCCC2)[nH]1` [Example 31], the PDHa/PDHt ratio in experiment [1] (setting [5]) was determined as 0.20. The compound also showed an activation at 500 µM in experiment [2] of 125%. As to `O=C(O)C(=O)c1ccc(Cc2ccccc2)[nH]1` [Example 32], the PDHa/PDHt ratio in experiment [1] (setting [4]) came out at 0.16; in experiment [1] (setting [6]), 0.83. The compound also had an activation at 500 µM in experiment [2] of 43%.

For the compound `O=C(O)C(=O)c1ccc(CCc2ccccc2)[nH]1` [Example 33], the PDHa/PDHt ratio in experiment [1] (setting [7]) worked out at 0.13. The compound also showed an activation at 500 µM in experiment [2] of 69%. Regarding `CSc1ccc(C(=O)C(=O)O)[nH]1` [Example 34], the PDHa/PDHt ratio in experiment [1] (setting [6]) amounted to 0.42. This compound registered an activation at 500 µM in experiment [2] of 53%. On to `O=C(O)C(=O)c1ccc(CCC2C=CCC2)[nH]1` (centres unmarked) [Example 35], for which, in experiment [1] (setting [7]), the PDHa/PDHt ratio is listed as 0.18. The compound also yielded an activation at 500 µM in experiment [2] of 209%. The matching figures for `O=C(O)C(=O)c1ccc(CC2CCCC2)[nH]1` [Example 36]: 0.20 and 154%. As for `O=C(O)C(=O)c1ccc(CC2CCCCC2)[nH]1` [Example 37], the PDHa/PDHt ratio in experiment [1] (setting [7]) was 0.12. In experiment [2], this compound came in with an activation at 500 µM of 124%. Turning to `O=C(O)C(=O)c1ccc(CCC2CCCC2)[nH]1` [Example 38], the PDHa/PDHt ratio in experiment [1] (setting [7]) stood at 0.25. In experiment [2], this compound displayed an activation at 500 µM of 80%.

Consider `CCCSc1ccc(C(=O)C(=O)OCC)[nH]1` [Example 39, 5-n-Propylthio-2-pyrrolylglyoxylic Acid Ethyl Ester], for which the activation at 500 µM in experiment [2] came out at 44%. Turning to `CCCSc1ccc(C(=O)C(=O)O)[nH]1` [Example 40, 5-n-Propylthio-2-pyrrolylglyoxylic Acid], in experiment [1] (setting [7]), the PDHa/PDHt ratio was 0.27. In experiment [2], this compound yielded an activation at 500 µM of 80%.
